Laboratory results: patent US20240174673A1, “Spirocycle Containing Pyridine Compounds” (Protego Biopharma, Inc., priority 2022, published 2024)

Tested on: Recombinant amyloidogenic full length light chain protein WIL-FL T46L
Experiment: Differential Scanning Fluorimetry (thermal shift) assay
Format: binding
Conditions: WIL-FL T46L protein and compound incubated at RT for 30 min before dye; compared to vehicle
Procedure: Differential Scanning Fluorimetry Assay
The stabilization effects the compounds have on the immunoglobulin light chain protein was quantitively measured using a thermal shift assay. Recombinant amyloidogenic full length light chain protein WIL-FL T46L was produced in E. coli, purified, and used in the assay. The Thermal Shift Protein Stability Kit from Biotium was used and the assay was done in 96-well Plates following the manufacturer's instructions. The protein and compounds were incubated at RT for 30 min before adding the dye and subjected to the thermal shift assay. The thermal stability (Tm) of each sample was then determined using standard curve fitting methods and compared to vehicle. Data are expressed as temperature shift: [Tm]compound−[Tm]vehicle.
The compounds provided herein induce shifts in the ranges below: • 0-0.5° C.=* • >0.5-1° C.=** • >1-1.5° C.=*** • >1.5-2.5° C.=**** • >2.5° C.=*****

| SMILES | DSF temperature shift: [Tm]compound−[Tm]vehicle |
| --- | --- |
| Cc1cc(N2CC[C@](C)(c3ccccc3)C2)cnc1C(=O)NCCN1CC2(CCN(c3nccn4ccnc34)CC2)NC1=O (stereo in doubt) [Compound 5, N-(2-(8-(imidazo[1,2-a]pyrazin-8-yl)-2-oxo-1,3,8-triazaspiro[4.5]decan-3-yl)ethyl)-3-methyl-5-(3-methyl-3-phenylpyrrolidin-1-yl)picolinamide] | ***** (>2.5° C.=*****) |
| C[C@H](COc1cnc(C(=O)NCCN2CC3(CCN(c4nccn5ccnc45)CC3)NC2=O)c(Cl)c1)c1ccccc1 (stereo in doubt) [Compound 13, 3-chloro-N-(2-(8-(imidazo[1,2-a]pyrazin-8-yl)-2-oxo-1,3,8-triazaspiro[4.5]decan-3-yl)ethyl)-5-(2-phenylpropoxy)picolinamide] | ***** (>2.5° C.=*****) |
| Cc1cc(N2CCC(C)(c3ccccc3)C2)cnc1C(=O)NCCN1CC2(CCNCC2)NC1=O (stereo not shown) [Compound 2, 3-methyl-5-(3-methyl-3-phenylpyrrolidin-1-yl)-N-(2-(2-oxo-1,3,8-triazaspiro[4.5]decan-3-yl)ethyl)picolinamide] | **** (>1.5-2.5° C.=****) |
| Cc1cc(N2CC[C@](C)(c3ccccc3)C2)cnc1C(=O)NCCN1CC2(CCN(c3nccn4cncc34)CC2)NC1=O [Compound 3] | ***** (>2.5° C.=*****) |
| Cc1cc(N2CC[C@](C)(c3ccccc3)C2)cnc1C(=O)NCCN1CC2(CCN(c3nccn4cnnc34)CC2)NC1=O [Compound 4] | ***** (>2.5° C.=*****) |
| Cc1cc(N2CC[C@@](C)(c3ccccc3)C2)cnc1C(=O)NCCN1CC2(CCN(c3nccn4ccnc34)CC2)NC1=O [Compound 6] | **** (>1.5-2.5° C.=****) |
| C[C@]1(c2ccccc2)CCN(c2cnc(C(=O)NCCN3CC4(CCN(c5nccn6ccnc56)CC4)NC3=O)c(Cl)c2)C1 [Compound 7, 3-chloro-N-(2-(8-(imidazo[1,2-a]pyrazin-8-yl)-2-oxo-1,3,8-triazaspiro[4.5]decan-3-yl)ethyl)-5-(3-methyl-3-phenylpyrrolidin-1-yl)picolinamide] | ***** (>2.5° C.=*****) |
| C[C@]1(c2ccccc2)CCN(c2cnc(C(=O)NCCN3CC4(CCN(c5nccn6ccnc56)CC4)NC3=O)c(C(F)(F)F)c2)C1 [Compound 8] | **** (>1.5-2.5° C.=****) |
| C[C@]1(c2ccccc2)CCN(c2cnc(C(=O)NCCN3CC4(CCN(c5nccn6cnnc56)CC4)NC3=O)c(Cl)c2)C1 [Compound 9] | ***** (>2.5° C.=*****) |
| CC[C@]1(c2ccccc2)CCN(c2cnc(C(=O)NCCN3CC4(CCN(c5nccn6ccnc56)CC4)NC3=O)c(Cl)c2)C1 [Compound 10] | ***** (>2.5° C.=*****) |
| CC[C@]1(c2ccccc2)CCN(c2cnc(C(=O)NCCN3CC4(CCN(c5nccn6cnnc56)CC4)NC3=O)c(Cl)c2)C1 [Compound 11] | ***** (>2.5° C.=*****) |
| C[C@H](COc1cnc(C(=O)NCCN2CC3(CCNCC3)NC2=O)c(Cl)c1)c1ccccc1 [Compound 12] | *** (>1-1.5° C.=***) |
| Cc1cc(N2CCC(C)(c3ccccc3)C2)cnc1C(=O)NCCN1CC2(CCN(c3nccn4ccnc34)CC2)NC1=O (stereo not shown) [Compound 14] | ***** (>2.5° C.=*****) |
| CCOC(=O)c1ccc(N2CCC3(CC2)CN(CCNC(=O)c2ncc(OC[C@@H](C)c4ccccc4)cc2Cl)C(=O)N3)cn1 [Compound 15] | *** (>1-1.5° C.=***) |
| CC[C@]1(c2ccccc2)CCN(c2cnc(C(=O)NCCN3CC4(CCN(c5ccnc(C(=O)NC)c5)CC4)NC3=O)c(Cl)c2)C1 [Compound 16] | * (0-0.5° C.=*) |
| CC[C@]1(c2ccccc2)CCN(c2cnc(C(=O)NCCN3CC4(CCN(c5cncnc5)CC4)NC3=O)c(Cl)c2)C1 [Compound 17] | ** (>0.5-1° C.=**) |
| COC(=O)c1ncc(N2CCC3(CC2)CN(CCNC(=O)c2ncc(OC[C@@H](C)c4ccccc4)cc2Cl)C(=O)N3)cc1F [Compound 18] | ** (>0.5-1° C.=**) |
| COC(=O)c1ccc(N2CCC3(CC2)CN(CCNC(=O)c2ncc(OC[C@@H](C)c4ccccc4)cc2Cl)C(=O)N3)nn1 [Compound 19] | **** (>1.5-2.5° C.=****) |
| C[C@H](COc1cnc(C(=O)NCCN2CC3(CCN(c4cnc(C(=O)O)c(F)c4)CC3)NC2=O)c(Cl)c1)c1ccccc1 [Compound 20] | ** (>0.5-1° C.=**) |
| C[C@H](COc1cnc(C(=O)NCCN2CC3(CCN(c4ccc(C(=O)O)nn4)CC3)NC2=O)c(Cl)c1)c1ccccc1 [Compound 21] | ** (>0.5-1° C.=**) |
| C[C@H](COc1cnc(C(=O)NCCN2CC3(CCN(c4ccc(C(=O)O)nc4)CC3)NC2=O)c(Cl)c1)c1ccccc1 [Compound 22] | *** (>1-1.5° C.=***) |
| C[C@H](COc1cnc(C(=O)NCCN2CC3(CCN(c4nccn5cncc45)CC3)NC2=O)c(Cl)c1)c1ccccc1 [Compound 23] | ***** (>2.5° C.=*****) |
| C[C@H](COc1cnc(C(=O)NCCN2CC3(CCN(c4cnccn4)CC3)NC2=O)c(Cl)c1)c1ccccc1 [Compound 24] | **** (>1.5-2.5° C.=****) |
| CC(=O)N1CCC2(CC1)CN(CCNC(=O)c1ncc(N3CC[C@](C)(c4ccccc4)C3)cc1C)C(=O)N2 [Compound 25] | **** (>1.5-2.5° C.=****) |
| Cc1cc(N2CCC(C)(c3ccccc3)C2)cnc1CCN1C(=O)NC2(CCN(c3ncccn3)CC2)C1=O (stereo not shown) [Compound 26] | * (0-0.5° C.=*) |
